Consider 2 molecules from patent US10420746B2, “Pharmaceutical composition containing Bay 11-7082, parthenolide or a combination thereof for the treatment of obesity or cardiovascular diseases” (priority 2015, dated 2019).

A value given as a limit tells only on which side of the number the result lay.

One experiment has as its system human erythrocytes. Description: GSH:GSSG ratio in treated human erythrocytes. To be noted: 24 hours, 0.6% hematocrit, DMSO control 125:1.
For experiment [1], the target named is T1, glutathione reductase (GR) (Homo sapiens, UniProt P00390).
T1 sequence (P00390 1-479 isoform P00390-2): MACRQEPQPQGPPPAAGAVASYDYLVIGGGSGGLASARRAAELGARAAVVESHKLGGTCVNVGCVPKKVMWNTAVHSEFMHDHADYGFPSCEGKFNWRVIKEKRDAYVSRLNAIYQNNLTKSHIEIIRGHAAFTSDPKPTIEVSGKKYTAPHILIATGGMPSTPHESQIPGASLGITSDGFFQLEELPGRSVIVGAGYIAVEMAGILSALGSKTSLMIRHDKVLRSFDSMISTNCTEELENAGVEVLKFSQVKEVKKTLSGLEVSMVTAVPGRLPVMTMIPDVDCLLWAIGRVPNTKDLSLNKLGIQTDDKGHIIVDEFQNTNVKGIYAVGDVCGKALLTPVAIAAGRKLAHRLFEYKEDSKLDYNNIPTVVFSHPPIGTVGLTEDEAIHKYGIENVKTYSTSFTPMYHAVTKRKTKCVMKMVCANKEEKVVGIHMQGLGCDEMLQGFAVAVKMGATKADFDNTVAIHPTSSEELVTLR
Briefly: Glutathione reductase (GR) enzyme activity in lysates of treated human erythrocytes. To be noted: for inhibition of the enzyme GR: concentration not given.

In experiment [2] the target is glucose-6-phosphate dehydrogenase (G6PDH) (Homo sapiens, UniProt P11413). Description: G6PDH enzyme activity in lysates of treated human erythrocytes. Set-up: inhibition of the G6PDH activity: dose or concentration left out as unconfirmed.
Chain of glucose-6-phosphate dehydrogenase (G6PDH) (P11413 whole entry): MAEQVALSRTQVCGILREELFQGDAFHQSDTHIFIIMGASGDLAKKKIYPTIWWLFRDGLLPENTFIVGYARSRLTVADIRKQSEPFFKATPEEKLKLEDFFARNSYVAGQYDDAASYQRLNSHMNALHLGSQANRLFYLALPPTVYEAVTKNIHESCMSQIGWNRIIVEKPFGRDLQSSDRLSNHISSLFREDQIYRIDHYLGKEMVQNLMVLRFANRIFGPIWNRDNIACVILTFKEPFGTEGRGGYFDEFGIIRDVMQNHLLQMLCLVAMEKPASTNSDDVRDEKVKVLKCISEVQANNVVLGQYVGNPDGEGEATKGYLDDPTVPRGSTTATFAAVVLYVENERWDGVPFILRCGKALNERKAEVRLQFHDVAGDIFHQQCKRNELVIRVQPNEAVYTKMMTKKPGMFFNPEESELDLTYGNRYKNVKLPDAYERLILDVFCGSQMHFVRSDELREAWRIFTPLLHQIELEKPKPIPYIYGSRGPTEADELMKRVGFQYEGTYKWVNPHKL

`Cc1ccc(S(=O)(=O)/C=C/C#N)cc1` [Bay 11-7082, 3-[(4-methylphenyl)sulfonyl]-(2E)-propenenitrile]: the “GSH:GSSG ratio” value with human erythrocytes (20 μM) is reported as “equal to 0 or approaching 0”. In addition, in experiment [1] (20 μM, erythrocytes 0.6% Hct treated 24 hours), the GSR inhibition result is on record as “complete GSR inhibition”. Moreover, the “inhibition of the enzyme GR” value in experiment [1] is “completely”. In experiment [2] ((clinically relevant concentration), erythrocytes treated 24 hours), the “inhibition of the G6PDH activity” value is “complete inhibition”. Further, the “inhibition of G6PDH” value in experiment [2] (already in low concentrations) was “complete”. Also, in experiment [2] (read-out: G6PDH-inhibition), the inhibition at 20 µM worked out at 100%.

As for `COC(=O)/C=C/C(=O)OC` [dimethylfumarate, (E)-2-butenedioic acid dimethyl ester], in the experiment with human erythrocytes (140 μM), the “GSH:GSSG ratio” value was “equal to 0 or approaching 0”. In addition, the “inhibition of the enzyme GR” value in experiment [1] stood at 50%. Besides, the inhibition at 140 µM in experiment [1] (read-out: GR inhibition) and in experiment [2] (read-out: inhibition of G6PDH) was ≥ 50% throughout.
